Assay results reported in PubChem BioAssay (NCI).
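These data come from cells grown in 96-well plates and exposed to compound for 48 hours at five concentrations. GI50 marks 50% less growth. TGI: concentration producing complete growth inhibition.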

Assays:
Experiment in all cases: inhibition of tumour cell growth, NCI panel, 48 h
[1] = test system: SF-268 CNS
[2] = test system: SN12C renal
[3] = test system: U251 CNS
[4] = test system: NCI-H460 lung
[5] = test system: MDA-MB-231 breast
[6] = test system: KM12 colon
[7] = test system: BT-549 breast
[8] = test system: NCI-H226 lung
[9] = test system: 786-0 renal
[10] = test system: SR leukemia
[11] = test system: IGROV1 ovarian
[12] = test system: SK-MEL-28 melanoma
[13] = test system: A498 renal
[14] = test system: MDA-N
[15] = test system: HCT-15 colon
[16] = test system: HL-60(TB) leukemia
[17] = test system: HCC-2998 colon
[18] = test system: SNB-75 CNS
[19] = test system: RXF 393 renal
[20] = test system: DU-145 prostate
[21] = test system: SNB-19 CNS
[22] = test system: CAKI-1 renal
[23] = test system: T-47D breast
[24] = test system: HT29 colon
[25] = test system: ACHN renal
[26] = test system: COLO 205 colon
[27] = test system: LOX IMVI melanoma
[28] = test system: SK-MEL-5 melanoma
[29] = test system: HOP-92 NSCLC
[30] = test system: UACC-62 melanoma
[31] = test system: HOP-62 NSCLC
[32] = test system: HCT-116 colon
[33] = test system: OVCAR-4 ovarian
[34] = test system: HS 578T breast
[35] = test system: MALME-3M melanoma
[36] = test system: SF-539 CNS
[37] = test system: OVCAR-8 ovarian
[38] = test system: NCI/ADR-RES ovarian
[39] = test system: PC-3 prostate
[40] = test system: OVCAR-5 ovarian
[41] = test system: SW-620 colon
[42] = test system: MCF7 breast
[43] = test system: CCRF-CEM leukemia
[44] = test system: A549 NSCLC
[45] = test system: EKVX NSCLC
[46] = test system: NCI-H522 lung
[47] = test system: K-562 leukemia
[48] = test system: NCI-H23 lung
[49] = test system: SK-OV-3 ovarian
[50] = test system: M14 melanoma
[51] = test system: UACC-257 melanoma
[52] = test system: OVCAR-3 ovarian
[53] = test system: UO-31 renal
[54] = test system: MOLT-4 leukemia
[55] = test system: TK-10 renal
[56] = test system: MDA-MB-435

CC(C)=CC(=O)O[C@H]1C(=O)O[C@@H]2C[C@H]3[C@H](C)C(=O)C(O[C@@H]4O[C@H](CO)[C@@H](O)[C@H](O)[C@H]4O)=C[C@]3(C)[C@H]3[C@@H](O)[C@H](O)[C@]4(C(=O)O)OC[C@]32[C@@H]14
GI50 [1]: > 100 µM
TGI [1]: > 100 µM
GI50 [2]: > 100 µM
TGI [2]: > 100 µM
GI50 [3]: 40 µM
TGI [3]: > 100 µM
GI50 [4]: 32 µM
TGI [4]: > 100 µM
GI50 [5]: > 100 µM
TGI [5]: > 100 µM
GI50 [6]: 49.1 µM
TGI [6]: > 100 µM
GI50 [7]: > 100 µM
TGI [7]: > 100 µM
GI50 [8]: 28.4 µM
TGI [8]: 85 µM
TGI [9]: > 100 µM
GI50 [10]: 31.2 µM
TGI [10]: > 100 µM
TGI [11]: > 100 µM
GI50 [12]: 37.3 µM
TGI [12]: > 100 µM
TGI [13]: > 100 µM
TGI [14]: > 100 µM
GI50 [15]: > 100 µM
TGI [15]: > 100 µM
GI50 [16]: 35.8 µM
TGI [16]: > 100 µM
GI50 [17]: 24.7 µM
TGI [17]: 57.5 µM
TGI [18]: > 100 µM
GI50 [19]: 25.4 µM
TGI [19]: 73.1 µM
GI50 [20]: > 100 µM
TGI [20]: > 100 µM
GI50 [21]: 31.3 µM
TGI [21]: > 100 µM
TGI [22]: > 100 µM
TGI [23]: > 100 µM
GI50 [24]: 35.6 µM
TGI [24]: > 100 µM
GI50 [25]: > 100 µM
TGI [25]: > 100 µM
TGI [26]: > 100 µM
GI50 [27]: 40.3 µM
TGI [27]: > 100 µM
GI50 [28]: 42.9 µM
TGI [28]: > 100 µM
GI50 [29]: 31.4 µM
TGI [29]: > 100 µM
TGI [30]: > 100 µM
GI50 [31]: 33.2 µM
TGI [31]: > 100 µM
GI50 [32]: 29.8 µM
TGI [32]: > 100 µM
GI50 [33]: 25.2 µM
TGI [33]: > 100 µM
GI50 [34]: > 100 µM
TGI [34]: > 100 µM
GI50 [35]: 24.2 µM
TGI [35]: 61.1 µM
GI50 [36]: 26.6 µM
TGI [36]: 67.1 µM
GI50 [37]: > 100 µM
TGI [37]: > 100 µM
GI50 [38]: > 100 µM
TGI [38]: > 100 µM
TGI [39]: > 100 µM
TGI [40]: > 100 µM
TGI [41]: > 100 µM
GI50 [42]: 22.2 µM
TGI [42]: 66.1 µM
GI50 [43]: 36.3 µM
TGI [43]: > 100 µM
GI50 [44]: 55 µM
TGI [44]: > 100 µM
GI50 [45]: > 100 µM
TGI [45]: > 100 µM
GI50 [46]: 29 µM
TGI [46]: 52.6 µM
GI50 [47]: 25.8 µM
TGI [47]: > 100 µM
TGI [48]: > 100 µM
GI50 [49]: > 100 µM
TGI [49]: > 100 µM
GI50 [50]: 32.1 µM
TGI [50]: > 100 µM
TGI [51]: > 100 µM
GI50 [52]: 20.3 µM
TGI [52]: 52.1 µM
GI50 [53]: 31.3 µM
TGI [53]: > 100 µM
GI50 [54]: 22.4 µM
TGI [54]: > 100 µM
TGI [55]: > 100 µM
TGI [56]: > 100 µM
